Structures are written as SMILES. “And” between values parts separate entries of the source, which are not always exact repeats. Equal values may be shown once.

The subject of this experiment is NFL and optic nerves (ON). Description: Rat in vivo OHT model, electron microscopy of AP and DAV in NFL and optic nerve. The conditions noted are these: in vivo OHT eyes; for Autophagosomes (AP) in the NFL (FIG. 5M), Total / Degenerative autophagic vacuoles (DAV) in the NFL (FIG. 5N), Total: Total of 10 areas; for Autophagosomes (AP)/25 μm2 in the NFL (FIG. 5M), individual areas 1-10 / Degenerative autophagic vacuoles (DAV)/25 μm2 in the NFL (FIG. 5N), individual areas 1-10 / Autophagosomes (AP)/100 μm2 in the ON (FIG. 5Y), individual areas 1-10 / Degenerative autophagic vacuoles (DAV)/100 μm2 in the ON (FIG. 5Z), individual areas 1-10: single values. The protocol:
Example 7. Rat in vivo OHT model induced by intracameral injection of microbeads—For induction of ocular hypertension (OHT) in vivo, sterile 6 μm polystyrene microbeads were injected into the anterior chamber of the left eye of each animal using a single-step, sclero-corneal tunnel approach with a 35G nanoneedle (FIG. 4A). […] After stabilization of elevated IOP, animals were randomly divided into 3 groups (non-treated OHT, AlloP injection, and ent-AlloP injection). AlloP and ent-AlloP were administered as a one-time intravitreal injection one week following bead injection. Non-treated OHT animals received sterile vehicle intravitreally. As a further control, vehicle was intravitreally injected 7 days after intracameral administration of 10 μl of PBS. Three weeks after bead injections, IOP was 26.7±3.7 mmHg in non-treated OHT eyes compared to 9.9±0.9 mmHg in control eyes.
Rat in vivo OHT model—8-week old male Sprague-Dawley rats were deeply anesthetized with an intraperitoneal injection of a mixture of medetomidine hydrochloride (Cat #133-17474, CAS. No 86347-15-1, Wako Pure Chemical Industries Ltd., Osaka, Japan, 0.15 mg/kg), midazolam (Cat #135-13791, CAS. No 58786-99-5, Wako Pure Chemical Industries Ltd., 2 mg/kg), and butorphanol tartrate (Cat #021-19001, CAS. No […], Wako Pure Chemical Industries Ltd., 2.5 mg/kg), and intraocular pressure was increased unilaterally to approximately 35 mmHg, by intracameral injection of polystyrene microbeads using a single-step, sclero-corneal tunnel approach with a 35G-gauge nanoneedle (#LNAN-3505LM, Saito Medical Instruments Inc., Tokyo, Japan) connected to 100 μl WPI Nanofil 100 microsyringe (World Precision Instruments, Inc., Sarasota, FL). Sterile 6 μm polystyrene microbeads in a 1×10^6 microbeads/ml solution (Molecular Probes, Eugene, OR, USA) were concentrated to obtain a 1×10^7 microbeads/ml solution. This solution was suspended in PBS. The microbeads suspended in PBS were aspirated into a 100 μl Hamilton microsyringe and injected into the anterior chamber of […] of each animal. 10 μl of the microbead suspension were injected without contacting the cornea or iris with the needle. After stabilization of the elevated IOP, animals were randomly divided into 3 groups (non-treated OHT, AlloP injection, and ent-AlloP injection). AlloP and ent-AlloP were dissolved in 20% w/v (2-Hydroxypropyl)-β-cyclodextrin (2HBCD) in saline solution at concentration of 0.05% (w/v) solution, and injected into the vitreous chamber in a total volume of 1 μl using a Hamilton syringe adapted with a 35 G-gauge nanoneedle 1 week after the beads were injected under halothane inhalation anesthesia. OHT animals (vehicle control) received sterile 1 μl 20% (w/v) 2HBCD with PBS. As a further control, 1 μl 20% (w/v) 2HBCD was intravitreally injected 7 days after intracameral injection with 10 μl of PBS. The number of animals used in each experiment is indicated in the corresponding method. […] Ocular hypertension was monitored preoperatively, and at 3 days, 1 week, 2 weeks or 3 weeks after the beads were injected. IOP was measured using a laboratory tonometer (TonoLab, Icare, Finland).
Electron Microscopy—Retinal specimens were trimmed to a smaller size, and ultrathin sections (75 nm) were cut with a diamond knife and suspended over formvar-coated slot grids (1×2 mm opening). The sections were stained with uranyl acetate and lead citrate and viewed in a transmission electron microscope (H-7650, Hitachi High-Technologies Corp., Tokyo, Japan). Numbers of AP and DAV inside NFLs and axons were determined as the sum in 10 different areas of 25 μm^2 each from each sample. The analysis was performed in three eyes per experimental condition.

As to `CC(=O)[C@H]1CC[C@H]2[C@@H]3CC[C@H]4C[C@H](O)CC[C@]4(C)[C@H]3CC[C@]12C` [AlloP, allopregnanolone], where the note is “intravitreal, Average of 10”, the “Degenerative autophagic vacuoles (DAV)/25 μm2 in the NFL (FIG. 5N), Average” value is 0.5 /25 μm2. For the same molecule, under “intravitreal”, the “Autophagosomes (AP) in the NFL (FIG. 5M), Total” value turned out to be 12; the “Degenerative autophagic vacuoles (DAV) in the NFL (FIG. 5N), Total” value was determined as 5; the “Autophagosomes (AP)/25 μm2 in the NFL (FIG. 5M), individual areas 1-10” value is 2 /25 μm2 (2×) and 1 /25 μm2 (8×); the “Degenerative autophagic vacuoles (DAV)/25 μm2 in the NFL (FIG. 5N), individual areas 1-10” value was 0 /25 μm2 (7×) and 2 /25 μm2 (2×) and 1 /25 μm2. Also, under “optic nerve, Average of 10”, the “Autophagosomes (AP)/100 μm2 in the ON (FIG. 5Y), Average” value is listed as 1.1 /100 μm2 and the “Degenerative autophagic vacuoles (DAV)/100 μm2 in the ON (FIG. 5Z), Average” value is reported as 0.0 /100 μm2. Besides, for the setting “optic nerve”, the “Autophagosomes (AP)/100 μm2 in the ON (FIG. 5Y), individual areas 1-10” value was 1 /100 μm2 (9×) and 2 /100 μm2; the “Degenerative autophagic vacuoles (DAV)/100 μm2 in the ON (FIG. 5Z), individual areas 1-10” value is on record as 0 /100 μm2.

On to `CC(=O)[C@@H]1CC[C@@H]2[C@H]3CC[C@@H]4C[C@@H](O)CC[C@@]4(C)[C@@H]3CC[C@]21C` [ent-AlloP, ent-allopregnanolone], for which, under “intravitreal”, the “Autophagosomes (AP) in the NFL (FIG. 5M), Total” value was 1; the “Degenerative autophagic vacuoles (DAV) in the NFL (FIG. 5N), Total” value is recorded as 22; the “Autophagosomes (AP)/25 μm2 in the NFL (FIG. 5M), individual areas 1-10” value was 0 /25 μm2 (9×) and 1 /25 μm2; the “Degenerative autophagic vacuoles (DAV)/25 μm2 in the NFL (FIG. 5N), individual areas 1-10” value was 1 /25 μm2 and 2 /25 μm2 (5×) and 4 /25 μm2 (2×) and 3 /25 μm2 and 0 /25 μm2. Also, where the note is “optic nerve”, the “Autophagosomes (AP)/100 μm2 in the ON (FIG. 5Y), individual areas 1-10” value is 0 /100 μm2 (9×) and 1 /100 μm2; the “Degenerative autophagic vacuoles (DAV)/100 μm2 in the ON (FIG. 5Z), individual areas 1-10” value was 0 /100 μm2 and 1 /100 μm2 (8×) and 2 /100 μm2.

Values taken from patent US20240041898A9, “NEUROSTEROIDS AND ENANTIOMERS THEREOF FOR THE PREVENTION AND TREATMENT OF NEURODEGENERATIVE CONDITIONS” (priority 2019, published 2024).
